ChEMBL document CHEMBL5678809, “Preclinical characterization of GLPG0634, a selective inhibitor of JAK1, for the treatment of inflammatory diseases” (J Immunol, 2013)
pIC50: −log10 of the molar value. The source made the active and inactive calls. The rule behind the calls is not given here.

Experiments:
[1] = molecular target: NUAK family SNF1-like kinase 1 (Homo sapiens) (UniProt O60285); assay: Inhibition of ARK5 (unknown origin) at 1 uM relative to control
[2] = molecular target: Ribosomal protein S6 kinase alpha-4 (Homo sapiens) (UniProt O75676); assay: Inhibition of MSK2 (unknown origin) at 1 uM relative to control
[3] = molecular target: Serine/threonine-protein kinase Sgk1 (Homo sapiens) (UniProt O00141); assay: Inhibition of SGK (unknown origin) at 1 uM relative to control
[4] = molecular target: Homeodomain-interacting protein kinase 2 (Homo sapiens, UniProt Q9H2X6); assay: Inhibition of HIPK2 (unknown origin)
[5] = Half life in Dark Agouti rat at 3 to 30 mg/kg, po; format: ADME, organism-based; settings: in vivo, dose 3-30 mg/kg
[6] = molecular target: Mitogen-activated protein kinase 13 (Homo sapiens) (UniProt O15264); assay: Inhibition of SAPK4 (unknown origin) at 1 uM relative to control
[7] = molecular target: Insulin receptor-related protein (Homo sapiens) (UniProt P14616); assay: Inhibition of IRR (unknown origin) at 1 uM relative to control
[8] = Half life in CD-1 mouse at 1 mg/kg, iv measured upto 8 hrs by LC-MS analysis; format: ADME, organism-based; settings: in vivo
[9] = Tmax in Sprague-Dawley rat at 5 mg/kg, po measured upto 24 hrs by LC-MS analysis; format: ADME, organism-based; settings: in vivo
[10] = molecular target: Cyclin-dependent kinase 2 (Homo sapiens, UniProt P24941); assay: Inhibition of CDK2 (unknown origin)
Mus musculus [11] = assay: Antiarthritic activity against collagen-induced arthritis DBA/1J mouse model assessed as MCP-3 level in serum at 50 mg/kg, po measured for 4 hrs by luminex analysis (reference value: 224 +/- 15.3 ng/ml); format: functional
[12] = molecular target: Serine/threonine-protein kinase Chk2 (Homo sapiens) (UniProt O96017); assay: Inhibition of CHK2 (unknown origin) at 1 uM relative to control
[13] = molecular target: Ephrin type-A receptor 2 (Homo sapiens) (UniProt P29317); assay: Inhibition of EphA2 (unknown origin) at 1 uM relative to control
[14] = molecular target: Tyrosine-protein kinase Fer (Homo sapiens) (UniProt P16591); assay: Inhibition of Fer (unknown origin) at 1 uM relative to control
[15] = molecular target: Ephrin type-A receptor 8 (Homo sapiens) (UniProt P29322); assay: Inhibition of EphA8 (unknown origin) at 1 uM relative to control
[16] = molecular target: Tyrosine-protein kinase FRK (Homo sapiens) (UniProt P42685); assay: Inhibition of PTK5 (unknown origin) at 1 uM relative to control
[17] = molecular target: Serine/threonine-protein kinase Chk1 (Homo sapiens) (UniProt O14757); assay: Inhibition of CHK1 (unknown origin) at 1 uM relative to control
[18] = molecular target: Death-associated protein kinase 1 (Homo sapiens, UniProt P53355); assay: Inhibition of DAPK1 (unknown origin)
Homo sapiens [19] = species: Homo sapiens; assay: Inhibition of PhK2 (unknown origin) at 1 uM relative to control
Mus musculus [20] = assay: Antiarthritic activity against collagen-induced arthritis DBA/1J mouse model assessed as LIF level in serum at 50 mg/kg, po measured for 4 hrs by luminex analysis (reference value: 696 +/- 108 ng/ml); format: functional
[21] = molecular target: Serine/threonine-protein kinase tousled-like 2 (Homo sapiens) (UniProt Q86UE8); assay: Inhibition of TLK2 (unknown origin) at 1 uM relative to control
[22] = molecular target: Angiopoietin-1 receptor (Homo sapiens) (UniProt Q02763); assay: Inhibition of Tie2 (unknown origin) at 1 uM relative to control
[23] = molecular target: Serine/threonine-protein kinase STK11 (Homo sapiens) (UniProt Q15831); assay: Inhibition of LKB1 (unknown origin) at 1 uM relative to control
[24] = molecular target: Interleukin-1 receptor-associated kinase 4 (Homo sapiens, UniProt Q9NWZ3); assay: Inhibition of IRAK4 (unknown origin)
[25] = molecular target: Mitogen-activated protein kinase kinase kinase 9 (Homo sapiens) (UniProt P80192); assay: Inhibition of MLK1 (unknown origin) at 1 uM relative to control
Mus musculus [26] = assay: Antiarthritic activity against collagen-induced arthritis DBA/1J mouse model assessed as reduction in clinical score at 50 mg/kg, po administered twice daily for 14 days; format: functional, organism-based; settings: time 14.0 day
Mus musculus [27] = assay: Antiarthritic activity against collagen-induced arthritis DBA/1J mouse model assessed as MIP-1beta level in serum at 50 mg/kg, po measured for 4 hrs by luminex analysis (reference value: 203.4= +/- 20.8 ng/ml); format: functional
[28] = molecular target: Tyrosine-protein kinase receptor UFO (Homo sapiens) (UniProt P30530); assay: Inhibition of Axl (unknown origin) at 1 uM relative to control
[29] = molecular target: Ribosomal protein S6 kinase beta-2 (Homo sapiens) (UniProt Q9UBS0); assay: Inhibition of p70S6K2 (unknown origin) at 1 uM relative to control
[30] = molecular target: Serine/threonine-protein kinase 10 (Homo sapiens) (UniProt O94804); assay: Inhibition of LOK (unknown origin) at 1 uM relative to control
[31] = molecular target: Serine/threonine-protein kinase 17A (Homo sapiens) (UniProt Q9UEE5); assay: Inhibition of DRAK1 (unknown origin) at 1 uM relative to control
[32] = Half life in Sprague-Dawley rat at 5 mg/kg, po measured upto 24 hrs by LC-MS analysis; format: ADME, organism-based; settings: in vivo
[33] = molecular target: cGMP-dependent protein kinase 1 (Homo sapiens) (UniProt Q13976); assay: Inhibition of PKG1 (unknown origin) at 1 uM relative to control
[34] = molecular target: Serine/threonine-protein kinase Nek6 (Homo sapiens) (UniProt Q9HC98); assay: Inhibition of NEK6 (unknown origin) at 1 uM relative to control
[35] = molecular target: LIM domain kinase 1 (Homo sapiens) (UniProt P53667); assay: Inhibition of LIMK1 (unknown origin) at 1 uM relative to control
[36] = molecular target: Dual specificity mitogen-activated protein kinase kinase 6 (Homo sapiens) (UniProt P52564); assay: Inhibition of MKK6 (unknown origin) at 1 uM relative to control
Misshapen-like kinase 1 = Misshapen-like kinase 1 (Homo sapiens, UniProt Q8N4C8); assay: Inhibition of MINK (unknown origin)
Mus musculus [37] = assay: Antiarthritic activity against collagen-induced arthritis DBA/1J mouse model assessed as reduction in MMP3 expression at 50 mg/kg, po measured for 4 hrs; format: functional, organism-based
Homo sapiens [38] = species: Homo sapiens; assay: Inhibition of MRCK (unknown origin) at 1 uM relative to control
Mus musculus [39] = assay: Antiarthritic activity against collagen-induced arthritis DBA/1J mouse model assessed as MCP-5 level in serum at 50 mg/kg, po measured for 4 hrs by luminex analysis (reference value: 62.8 +/- 12.4 ng/ml); format: functional
[40] = molecular target: FKBP12A/mTOR (Homo sapiens) (UniProt P62942+P42345); assay: Inhibition of mTOR/FKBP12 (unknown origin) at 1 uM relative to control; format: protein-complex assay
Sequence of FKBP12A/mTOR (Homo sapiens) (P62942 2-108 limits assumed, other chains not shown): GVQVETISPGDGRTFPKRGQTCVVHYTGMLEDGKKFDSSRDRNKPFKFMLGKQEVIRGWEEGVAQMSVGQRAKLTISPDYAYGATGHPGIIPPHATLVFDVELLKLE

Sequence of Homeodomain-interacting protein kinase 2 (Q9H2X6 whole entry): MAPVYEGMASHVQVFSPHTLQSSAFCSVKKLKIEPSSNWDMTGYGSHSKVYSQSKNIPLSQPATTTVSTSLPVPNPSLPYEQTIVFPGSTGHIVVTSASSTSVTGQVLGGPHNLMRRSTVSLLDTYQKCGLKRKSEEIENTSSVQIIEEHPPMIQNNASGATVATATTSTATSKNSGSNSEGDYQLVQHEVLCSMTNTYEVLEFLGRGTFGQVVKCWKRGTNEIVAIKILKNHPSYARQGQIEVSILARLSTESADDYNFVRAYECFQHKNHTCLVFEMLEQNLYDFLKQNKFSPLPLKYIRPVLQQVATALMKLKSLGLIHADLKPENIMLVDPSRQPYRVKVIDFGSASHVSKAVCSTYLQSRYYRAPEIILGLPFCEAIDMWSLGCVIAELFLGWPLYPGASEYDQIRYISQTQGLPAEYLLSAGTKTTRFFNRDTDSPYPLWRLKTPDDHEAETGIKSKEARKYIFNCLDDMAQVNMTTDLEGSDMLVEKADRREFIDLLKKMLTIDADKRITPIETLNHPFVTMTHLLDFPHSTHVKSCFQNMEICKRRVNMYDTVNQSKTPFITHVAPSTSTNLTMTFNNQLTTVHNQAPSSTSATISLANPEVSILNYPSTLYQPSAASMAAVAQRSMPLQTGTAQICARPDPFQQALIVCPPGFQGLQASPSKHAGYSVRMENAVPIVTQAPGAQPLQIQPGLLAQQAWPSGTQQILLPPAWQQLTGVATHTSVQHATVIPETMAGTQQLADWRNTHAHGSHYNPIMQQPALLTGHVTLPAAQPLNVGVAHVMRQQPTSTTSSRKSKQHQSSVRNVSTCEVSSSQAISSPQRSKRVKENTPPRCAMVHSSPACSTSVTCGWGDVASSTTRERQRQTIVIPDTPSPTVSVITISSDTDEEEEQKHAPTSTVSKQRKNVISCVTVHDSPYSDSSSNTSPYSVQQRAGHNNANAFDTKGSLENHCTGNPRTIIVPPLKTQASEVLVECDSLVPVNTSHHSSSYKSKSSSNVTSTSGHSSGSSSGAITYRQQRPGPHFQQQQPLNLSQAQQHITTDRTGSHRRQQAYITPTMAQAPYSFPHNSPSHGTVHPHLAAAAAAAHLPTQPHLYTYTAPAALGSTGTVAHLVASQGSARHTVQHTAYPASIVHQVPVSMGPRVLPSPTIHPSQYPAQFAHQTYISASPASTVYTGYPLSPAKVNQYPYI
Sequence of Dual specificity mitogen-activated protein kinase kinase 6 (Homo sapiens) (P52564 whole entry): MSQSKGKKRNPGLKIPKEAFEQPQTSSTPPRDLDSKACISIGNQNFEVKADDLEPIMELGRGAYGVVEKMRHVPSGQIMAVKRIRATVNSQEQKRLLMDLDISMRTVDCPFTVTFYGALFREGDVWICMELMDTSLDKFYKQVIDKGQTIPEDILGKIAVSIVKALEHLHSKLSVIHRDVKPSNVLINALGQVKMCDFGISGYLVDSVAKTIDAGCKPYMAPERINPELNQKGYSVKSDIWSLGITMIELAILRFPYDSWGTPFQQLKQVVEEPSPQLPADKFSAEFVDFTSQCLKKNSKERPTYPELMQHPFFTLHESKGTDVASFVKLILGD
Sequence of Serine/threonine-protein kinase STK11 (Homo sapiens) (Q15831 whole entry): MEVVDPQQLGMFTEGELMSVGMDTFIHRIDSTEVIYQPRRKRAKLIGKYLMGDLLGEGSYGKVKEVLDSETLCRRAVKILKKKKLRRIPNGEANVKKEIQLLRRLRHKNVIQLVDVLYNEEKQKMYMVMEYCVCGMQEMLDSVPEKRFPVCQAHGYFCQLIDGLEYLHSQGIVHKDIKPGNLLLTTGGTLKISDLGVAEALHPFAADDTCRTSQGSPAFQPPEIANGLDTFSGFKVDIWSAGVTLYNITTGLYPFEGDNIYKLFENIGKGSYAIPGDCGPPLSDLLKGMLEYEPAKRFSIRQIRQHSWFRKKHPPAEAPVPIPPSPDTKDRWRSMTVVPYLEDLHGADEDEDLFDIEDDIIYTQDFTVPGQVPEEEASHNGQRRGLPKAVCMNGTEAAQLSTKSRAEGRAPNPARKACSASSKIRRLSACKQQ
Sequence of Misshapen-like kinase 1 (Q8N4C8 whole entry): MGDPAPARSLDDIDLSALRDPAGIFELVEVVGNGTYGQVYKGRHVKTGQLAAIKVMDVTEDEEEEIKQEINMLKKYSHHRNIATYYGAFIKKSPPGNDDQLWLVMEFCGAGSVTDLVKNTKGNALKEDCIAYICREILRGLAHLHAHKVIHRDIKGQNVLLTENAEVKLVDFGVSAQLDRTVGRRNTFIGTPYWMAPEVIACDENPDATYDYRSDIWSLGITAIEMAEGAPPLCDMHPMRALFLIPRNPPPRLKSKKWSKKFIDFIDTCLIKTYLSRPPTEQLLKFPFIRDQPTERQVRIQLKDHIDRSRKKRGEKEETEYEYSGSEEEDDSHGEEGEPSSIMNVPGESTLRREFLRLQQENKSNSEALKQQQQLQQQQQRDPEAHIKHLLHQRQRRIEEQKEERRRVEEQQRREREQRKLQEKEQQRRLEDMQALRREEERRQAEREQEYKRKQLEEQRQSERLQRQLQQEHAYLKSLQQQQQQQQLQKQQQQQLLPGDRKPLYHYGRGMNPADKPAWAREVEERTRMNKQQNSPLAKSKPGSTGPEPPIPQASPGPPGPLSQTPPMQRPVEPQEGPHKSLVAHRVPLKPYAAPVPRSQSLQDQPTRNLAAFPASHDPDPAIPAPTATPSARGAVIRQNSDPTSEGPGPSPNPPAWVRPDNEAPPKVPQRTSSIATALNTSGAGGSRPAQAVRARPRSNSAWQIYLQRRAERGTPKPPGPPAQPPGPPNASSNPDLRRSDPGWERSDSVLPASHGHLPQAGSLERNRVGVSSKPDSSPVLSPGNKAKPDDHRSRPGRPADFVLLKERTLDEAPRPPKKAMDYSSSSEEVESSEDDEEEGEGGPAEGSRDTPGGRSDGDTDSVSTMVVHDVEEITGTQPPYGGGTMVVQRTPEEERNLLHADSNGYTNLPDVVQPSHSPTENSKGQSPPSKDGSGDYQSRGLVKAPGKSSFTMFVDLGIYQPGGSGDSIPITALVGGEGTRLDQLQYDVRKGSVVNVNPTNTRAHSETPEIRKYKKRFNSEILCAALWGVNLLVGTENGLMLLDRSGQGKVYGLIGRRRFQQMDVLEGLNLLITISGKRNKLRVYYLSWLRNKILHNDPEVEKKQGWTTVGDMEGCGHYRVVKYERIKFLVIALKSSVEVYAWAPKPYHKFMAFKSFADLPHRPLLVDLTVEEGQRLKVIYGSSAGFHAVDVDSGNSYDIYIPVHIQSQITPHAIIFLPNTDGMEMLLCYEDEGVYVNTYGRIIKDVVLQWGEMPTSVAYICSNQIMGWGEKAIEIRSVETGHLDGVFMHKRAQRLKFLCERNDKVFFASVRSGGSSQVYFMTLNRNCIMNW
Sequence of Angiopoietin-1 receptor (Homo sapiens) (Q02763 whole entry): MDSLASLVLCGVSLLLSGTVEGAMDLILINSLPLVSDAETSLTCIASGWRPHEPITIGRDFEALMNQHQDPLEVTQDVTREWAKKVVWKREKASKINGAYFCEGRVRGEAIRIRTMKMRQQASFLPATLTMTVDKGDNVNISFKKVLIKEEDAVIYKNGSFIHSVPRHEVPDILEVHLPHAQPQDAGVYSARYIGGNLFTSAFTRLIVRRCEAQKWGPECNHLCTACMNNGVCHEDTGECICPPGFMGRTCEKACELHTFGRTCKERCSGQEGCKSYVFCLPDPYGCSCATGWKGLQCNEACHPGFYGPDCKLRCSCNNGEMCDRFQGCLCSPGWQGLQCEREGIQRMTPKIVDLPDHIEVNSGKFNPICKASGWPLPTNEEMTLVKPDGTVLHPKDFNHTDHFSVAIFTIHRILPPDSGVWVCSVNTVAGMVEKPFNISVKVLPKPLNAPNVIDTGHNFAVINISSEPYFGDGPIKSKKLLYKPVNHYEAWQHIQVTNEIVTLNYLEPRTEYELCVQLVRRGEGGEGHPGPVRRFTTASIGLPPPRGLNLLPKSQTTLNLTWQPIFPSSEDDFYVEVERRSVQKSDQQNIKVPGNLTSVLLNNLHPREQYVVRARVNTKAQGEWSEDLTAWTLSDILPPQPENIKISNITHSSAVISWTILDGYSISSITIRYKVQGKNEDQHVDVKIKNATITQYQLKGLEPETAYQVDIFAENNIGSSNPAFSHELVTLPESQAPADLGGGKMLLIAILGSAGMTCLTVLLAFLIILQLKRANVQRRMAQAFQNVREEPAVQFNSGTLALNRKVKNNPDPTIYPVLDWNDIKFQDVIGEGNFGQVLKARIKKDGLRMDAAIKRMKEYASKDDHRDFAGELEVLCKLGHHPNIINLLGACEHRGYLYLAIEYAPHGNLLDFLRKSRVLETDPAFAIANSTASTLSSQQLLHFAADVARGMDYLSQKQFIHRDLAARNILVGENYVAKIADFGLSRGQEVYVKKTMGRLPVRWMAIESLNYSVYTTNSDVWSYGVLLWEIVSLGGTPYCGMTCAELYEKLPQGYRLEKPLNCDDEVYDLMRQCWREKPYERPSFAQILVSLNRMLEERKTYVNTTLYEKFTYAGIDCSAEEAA
Sequence of Tyrosine-protein kinase FRK (Homo sapiens) (P42685 whole entry): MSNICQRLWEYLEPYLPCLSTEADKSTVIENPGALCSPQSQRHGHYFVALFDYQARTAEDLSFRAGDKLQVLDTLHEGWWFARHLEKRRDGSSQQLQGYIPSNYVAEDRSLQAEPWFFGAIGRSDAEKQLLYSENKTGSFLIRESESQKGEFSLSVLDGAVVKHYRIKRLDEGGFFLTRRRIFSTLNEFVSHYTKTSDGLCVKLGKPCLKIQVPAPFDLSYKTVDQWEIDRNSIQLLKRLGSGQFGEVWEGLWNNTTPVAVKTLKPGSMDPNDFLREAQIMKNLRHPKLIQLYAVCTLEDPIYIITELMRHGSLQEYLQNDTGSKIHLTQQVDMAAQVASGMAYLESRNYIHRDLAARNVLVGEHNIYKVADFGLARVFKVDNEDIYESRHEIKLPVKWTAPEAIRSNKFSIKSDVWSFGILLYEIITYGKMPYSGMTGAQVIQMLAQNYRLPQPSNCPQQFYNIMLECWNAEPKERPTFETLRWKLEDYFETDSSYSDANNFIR

`O=C(Nc1nc2cccc(-c3ccc(CN4CCS(=O)(=O)CC4)cc3)n2n1)C1CC1` [FILGOTINIB] showed an inhibition [1] of 1%, an inhibition [2] of 7% and an inhibition [3] of 7%. The pIC50 [4] was under 5.00, the half-life [5] was about 240 min and the inhibition [6] was -10%. For the same compound, the inhibition [7] was -5%, the half-life [8] was 150 min and the Tmax [9] was 2.2 h. For the same compound, the pIC50 [10] was under 5.00, the Activity (Mus musculus [11]) was 153.8 ng/mL and the inhibition [12] was 6%. For the same compound, the inhibition [13] was -9%, the inhibition [14] was -5% and the inhibition [15] was 1%. It also gave an inhibition [16] of -6%, an inhibition [17] of 10% and a pIC50 [18] of under 5.00. For the same compound, the inhibition (Homo sapiens [19]) was -7%, the Activity (Mus musculus [20]) was 743.8 ng/mL and the inhibition [21] was -6%. For the same compound, the inhibition [22] was -2%, the inhibition [23] was -5% and the pIC50 [24] was under 5.00. For the same compound, the inhibition [25] was 1%, the Activity (Mus musculus [26]) was “Active” and the Activity (Mus musculus [27]) was 143 ng/mL. It also gave an inhibition [28] of -5%, an inhibition [29] of -6% and an inhibition [30] of -3%. For the same compound, the inhibition [31] was 26%, the half-life [32] was 234 min and the inhibition [33] was -1%. It also gave an inhibition [34] of -4%, an inhibition [35] of -1% and an inhibition [36] of -6%. For the same compound, the pIC50 (Misshapen-like kinase 1) was under 5.00, the Activity (Mus musculus [37]) was “Active” and the inhibition (Homo sapiens [38]) was -3%. The Activity (Mus musculus [39]) was 36.4 ng/mL and the inhibition [40] was 3%.
